From patent US20010039297A1, “COMPOSITIONS AND METHOD FOR IMPROVING INSULIN SENSIVITY AND GLUCOSE METABOLISM IN INDIVIDUALS WITH IMPAIRED FASTING GLUCOSE OR IMPAIRED GLUCOSE TOLERANCE” (Insmed Pharmaceuticals, Inc., priority 1998, published 2001)

Legend:
Format in all cases: in vivo, human
[1] = tested on: obese men; assay: tolbutamide-modified frequently sampled intravenous glucose tolerance test (FSIGTT), insulin sensitivity index by minimal model, clinical study; details: single oral dose 300-1200 mg, fasted, 2 hours before FSIGTT
From the text: The third method of determining insulin sensitivity involves frequently collecting blood samples for glucose and insulin during an intravenous glucose tolerance test, and analyzing the glucose and insulin dynamics using a minimal mathematical model developed by Bergman (Bergman et. al., J. Clin. Invest. 68:1456-1467 (1981)). This test can be modified by the injection of tolbutamide or exogenous insulin to boost the insulin response and improve the correlation with the euglycemic clamp. The FSIGTT provides an accessible way to determine the insulin sensitivity index (S1). The more insulin insensitive a subject is, the lower the calculated S1. As insulin sensitivity is improved, the S1 value is increased—thus a higher S1 value corresponds to greater insulin sensitivity.
A clinical study of D-chiro-inositol was performed in obese men. This was a three phase, double blind, single oral dose crossover study with subjects receiving either D-chiro-inositol (300-1200 mg) or placebo in a randomized crossover fashion. Treatments were administered to subjects in a fasted state 2 hours before the tolbutamide-modified frequently sampled intravenous glucose tolerance test (FSIGTT) began.
The insulin sensitivity index (S1) was derived using the minimal model analysis of plasma glucose and insulin concentrations sampled during a full tolbutamide-modified FSIGTT.

[2] = tested on: obese men and women with abnormal glucose tolerance; assay: oral glucose tolerance test before and after treatment, clinical study, subjects with abnormal glucose tolerance; details: 1200 mg/day for 7 to 14 days
Procedure: (§1) Impaired glucose tolerance, as defined by the World Health Organization, is determined by the administration of a standard oral glucose tolerance test (OGTT) (World Health Org., Diabetes Mellitus, Tech. Rep. Ser., no. 727 (1985)). During an OGTT, a measured amount of glucose (75 grams) is given to a fasted individual and blood glucose levels are measured every 30 minutes, usually for 2 or 3 hours. In a individual with normal glucose tolerance, the blood glucose values will rise during the first part of the test and then rapidly return to basal levels. In an IGT individual the post prandial glucose levels will rise above the normal range, producing a 2-hour glucose value of 140-199 mg/dL, and return to basal levels at a slow rate.
(§2) A clinical study utilizing D-chiro-inositol was performed in obese men and women with normal and abnormal glucose tolerance. Eighteen volunteers received D-chiro-inositol (1200 mg/day) for 7 to 14 days. An oral glucose tolerance test was performed at the beginning of the study, prior to treatment, and at the end of the study, after D-chiro-inositol treatment.

[3] = tested on: obese men and women with normal glucose tolerance; assay: oral glucose tolerance test before and after treatment, clinical study, subjects with normal glucose tolerance; details: eleven volunteers with normal glucose response; 1200 mg/day for 7 to 14 days
Procedure: as §1, §2

Structure (SMILES): OC1C(O)C(O)C(O)C(O)C1O [D-chiro-inositol]
- mean increase in insulin sensitivity [1]: 61%
- subjects demonstrating an increase in insulin sensitivity (S1) ([1]; out of 9 subjects): 6 out of 9
- 90 and 120 minute glucose values in OGTT ([2]; abnormal glucose tolerant subjects, p<0.05): statistically significant reduction
- glucose response to the glucose load (OGTT) ([2]; seven subjects with abnormal, elevated glucose response): significantly improved
- glucose values during OGTT [3]: not modified
